Reference: patent US8513232B2, “Substituted spirocyclic piperidine derivatives as histamine-3 (H3) receptor ligands” (Cephalon, Inc., priority 2008, dated 2013)
Read-outs that look alike come from different tables or passages of the source.

Assays:
[1] = target: T1, human H3 receptor (Homo sapiens, UniProt Q9Y5N1); experiment: Human H3 radioligand binding ([3H]-N-alpha-methylhistamine, SPA)
T1 construct: expressed in transfected cells
Outline: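 SPA competition binding on membranes from CHO cells stably expressing human H3 receptor (10 μg protein/well) with ~1 nM [3H]-N-alpha-methylhistamine and compound at 0.01 nM-30 μM. Incubation 4 h at room temperature in 50 mM Tris-HCl pH 7.4, 5 mM MgCl2, 0.1% BSA; non-specific binding defined with 10 μM clobenpropit.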

[2] = target: T2, rat histamine H3 receptor (Rattus norvegicus, UniProt Q9QYN8); experiment: Rat H3 radioligand binding ([3H]-N-alpha-methylhistamine, SPA)
T2 construct: encoding the entire 445-amino-acid rat histamine H3 receptor; expressed in transfected cells; membrane preparation
Outline: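 Membranes from CHO-A3 cells stably expressing full-length rat H3 receptor (10 μg protein/well) incubated 4 h at room temperature, protected from light, with ~1 nM [3H]-N-alpha-methylhistamine and compound (0.01 nM-30 μM) in 50 mM Tris HCl pH 7.4, 5 mM MgCl2, 0.1% BSA. Binding read by SPA; 10 μM clobenpropit defined non-specific binding.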

[3] = Human H3 binding, Table B, Examples 136-362, read-out: hum H3 binding Ki
[4] = Rat H3 binding, Table B, Examples 136-362, read-out: rat H3 binding Ki
[5] = Table C, human H3 binding, read-out: Human H3 Ki
[6] = Table C, rat H3 binding, read-out: Rat H3 Ki

T1 sequence (Q9Y5N1 whole entry): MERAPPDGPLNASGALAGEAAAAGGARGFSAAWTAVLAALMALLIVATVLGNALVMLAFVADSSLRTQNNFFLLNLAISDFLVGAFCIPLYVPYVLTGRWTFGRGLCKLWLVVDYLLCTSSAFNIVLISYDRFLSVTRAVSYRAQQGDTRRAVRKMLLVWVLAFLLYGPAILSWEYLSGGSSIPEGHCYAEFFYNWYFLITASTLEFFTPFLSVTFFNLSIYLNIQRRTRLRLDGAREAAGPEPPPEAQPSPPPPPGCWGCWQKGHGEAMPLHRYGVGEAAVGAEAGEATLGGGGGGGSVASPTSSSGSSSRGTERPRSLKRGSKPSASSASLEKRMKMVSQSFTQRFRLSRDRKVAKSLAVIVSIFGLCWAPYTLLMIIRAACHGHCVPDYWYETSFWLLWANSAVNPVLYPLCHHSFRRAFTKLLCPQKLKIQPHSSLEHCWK
T2 sequence (Q9QYN8 whole entry): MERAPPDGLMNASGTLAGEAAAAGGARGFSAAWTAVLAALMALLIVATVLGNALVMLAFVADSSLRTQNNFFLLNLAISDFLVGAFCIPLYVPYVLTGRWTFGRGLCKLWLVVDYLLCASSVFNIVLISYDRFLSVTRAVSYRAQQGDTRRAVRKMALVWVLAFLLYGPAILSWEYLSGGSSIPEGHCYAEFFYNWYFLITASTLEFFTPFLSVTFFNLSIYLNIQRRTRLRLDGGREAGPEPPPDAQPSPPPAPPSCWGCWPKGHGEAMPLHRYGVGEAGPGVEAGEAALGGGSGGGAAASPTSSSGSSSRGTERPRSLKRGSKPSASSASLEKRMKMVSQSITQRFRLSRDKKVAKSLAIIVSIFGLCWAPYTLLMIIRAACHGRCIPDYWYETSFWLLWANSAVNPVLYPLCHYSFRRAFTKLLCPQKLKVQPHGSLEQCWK

Structure (SMILES)	melting point	Ki [1, 3]	Ki [2, 4]	Ki [1, 5]	Ki [2, 6]
COCCNC(=O)c1ccc(-c2ccc3c(c2)COC2(CCN(C4CCC4)CC2)O3)cc1Cl [Example 330]	234 to 235 °C	< 200 nM	< 200 nM	–	–
O=C(Cc1ccncc1)Nc1ccc2c(c1)COC1(CCN(C3CCC3)CC1)O2 [Example 331]	170 to 172 °C	< 200 nM	< 200 nM	–	–
COCCNC(=O)c1ccc(-c2ccc3c(c2)CCC2(CCN(C4CCC4)CC2)O3)cc1Cl [Example 332]	231 to 232 °C	< 200 nM	< 200 nM	–	–
O=C(Cc1cccnc1)Nc1ccc2c(c1)COC1(CCN(C3CCC3)CC1)O2 [Example 333]	167 to 169 °C	< 200 nM	< 200 nM	–	–
CS(=O)(=O)N1CCC(COc2ccc3c(c2)CCC2(CCN(C4CCC4)CC2)O3)CC1 [Example 335]	159 to 161 °C	< 200 nM	< 200 nM	–	–
c1cc(CNc2ccc3c(c2)COC2(CCN(C4CCC4)CC2)O3)cs1 [Example 336]	101 to 102 °C	< 200 nM	< 200 nM	–	–
COCCNC(=O)c1ccc(-c2ccc3c(c2)CCC2(CCN(C4CCC4)C2)O3)cc1F (stereo not drawn) [Example 337]	58 to 60 °C	< 200 nM	< 200 nM	–	–
O=C(Nc1ccc2c(c1)COC1(CCN(C3CCC3)CC1)O2)c1ccc2[nH]ncc2c1 [Example 338]	249 to 250 °C	< 200 nM	< 200 nM	–	–
CN(C)C(=O)N1CCN(c2ccc3c(c2)CCC2(CCN(C4CCC4)C2)O3)CC1 (stereo not drawn) [Example 339]	231 to 233 °C	< 200 nM	< 200 nM	–	–
O=C(N[C@@H]1CCOC1)c1ccc(-c2ccc3c(c2)CCC2(CCN(C4CCC4)CC2)O3)cc1 [Example 341]	194 to 195 °C	< 200 nM	< 200 nM	–	–
CC(=O)N[C@H]1CCN(c2ccc3c(c2)COC2(CCN(C4CCC4)CC2)O3)C1 [Example 342]	77.9 to 80 °C	< 200 nM	< 200 nM	–	–
CC(=O)N[C@@H]1CCN(c2ccc3c(c2)COC2(CCN(C4CCC4)CC2)O3)C1 [Example 343]	77.9 to 79.9 °C	< 200 nM	< 200 nM	–	–
c1csc(CNc2ccc3c(c2)COC2(CCN(C4CCC4)CC2)O3)c1 [Example 344]	112 to 113 °C	< 200 nM	< 200 nM	–	–
O=C(Nc1ccc2c(c1)COC1(CCN(C3CCC3)CC1)O2)c1ccc2nccn2c1 [Example 345]	254 to 255 °C	< 200 nM	< 200 nM	–	–
O=C(N[C@@H]1CCOC1)c1ccc(-c2ccc3c(c2)COC2(CCN(C4CCC4)CC2)O3)cc1 [Example 346]	198 to 199 °C	< 200 nM	< 200 nM	–	–
O[C@@H]1CCN(c2ccc3c(c2)COC2(CCN(C4CCC4)CC2)O3)C1 [Example 347]	70.2 to 72.2 °C	< 200 nM	< 200 nM	–	–
CC(=O)N(Cc1cccs1)c1ccc2c(c1)COC1(CCN(C3CCC3)CC1)O2 [Example 348]	119 to 120 °C	< 200 nM	< 200 nM	–	–
O=C(Nc1ccc2c(c1)COC1(CCN(C3CCC3)CC1)O2)C1CCOCC1 [Example 349]	228 to 229 °C	< 200 nM	< 200 nM	–	–
Nc1ccc2c(c1)COC1(CCN(C3CCC3)CC1)O2 [Example 350]	160 to 162 °C	200 to 1000 nM	200 to 1000 nM	–	–
CCN(CC)C(=O)N1CCN(c2ccc3c(c2)COC2(CCN(C4CCC4)CC2)O3)CC1 [Example 351]	113 to 116.1 °C	< 200 nM	< 200 nM	–	–
CC(=O)N(Cc1ccsc1)c1ccc2c(c1)COC1(CCN(C3CCC3)CC1)O2 [Example 352]	101 to 102 °C	< 200 nM	< 200 nM	–	–

Structure (SMILES)	melting point	Ki [1, 3]	Ki [2, 4]	Ki [1, 5]	Ki [2, 6]
Cc1cnccc1C(=O)Nc1ccc2c(c1)COC1(CCN(C3CCC3)CC1)O2 [Example 353]	209 to 210 °C	< 200 nM	< 200 nM	–	–
O[C@H]1CCN(c2ccc3c(c2)COC2(CCN(C4CCC4)CC2)O3)C1 [Example 354]	72.6 to 74.9 °C	< 200 nM	< 200 nM	–	–
CC(C)NC(=O)c1ccc(-c2ccc3c(c2)CCC2(CCN(C4CCC4)CC2)O3)cc1F [Example 355]	131 to 132 °C	< 200 nM	< 200 nM	–	–
CC(C)NC(=O)c1ccc(-c2ccc3c(c2)COC2(CCN(C4CCC4)CC2)O3)cc1F [Example 356]	146.5 to 148 °C	< 200 nM	< 200 nM	–	–
CC(C)C(=O)N1CCC(COc2ccc3c(c2)CCC2(CCN(C4CCC4)CC2)O3)CC1 [Example 357]	130 to 132 °C	< 200 nM	< 200 nM	–	–
O=C(C1CC1)N1CCC(COc2ccc3c(c2)CCC2(CCN(C4CCC4)CC2)O3)CC1 [Example 358]	128 to 130 °C	< 200 nM	< 200 nM	–	–
COCCN(C)C(=O)c1c(F)cc(-c2ccc3c(c2)COC2(CCN(C4CCC4)CC2)O3)cc1F [Example 359]	78 to 80 °C	< 200 nM	< 200 nM	–	–
COCCN(C)C(=O)c1c(F)cc(-c2ccc3c(c2)CCC2(CCN(C4CCC4)CC2)O3)cc1F [Example 360]	100 to 102 °C	< 200 nM	< 200 nM	–	–
O=C(NC1CCOCC1)c1ccc(-c2ccc3c(c2)CCC2(CCN(C4CCC4)CC2)O3)cc1 [Example 361]	205 to 207 °C	< 200 nM	< 200 nM	–	–
O=C(NC1CCOCC1)c1ccc(-c2ccc3c(c2)COC2(CCN(C4CCC4)CC2)O3)cc1 [Example 362]	216 to 218 °C	< 200 nM	< 200 nM	–	–
c1ccc(N2CCN(c3ccc4c(c3)CCC3(CCN(C5CCC5)CC3)O4)CC2)cc1 [Example 363]	173 to 175 °C	–	–	< 200 nM	< 200 nM
CN1CCN(c2ccc3c(c2)CCC2(CCN(C4CCC4)CC2)O3)CC1 [Example 364]	125 to 126 °C	–	–	< 200 nM	< 200 nM
c1ccc(CN2CCN(c3ccc4c(c3)CCC3(CCN(C5CCC5)CC3)O4)CC2)cc1 [Example 365]	292 to 293 °C	–	–	< 200 nM	< 200 nM
Cc1cccc(N2CCN(c3ccc4c(c3)CCC3(CCN(C5CCC5)CC3)O4)CC2)n1 [Example 366]	159 to 161 °C	–	–	< 200 nM	< 200 nM
FC(F)(F)c1cccnc1N1CCN(c2ccc3c(c2)CCC2(CCN(C4CCC4)CC2)O3)CC1 [Example 367]	138 to 139 °C	–	–	< 200 nM	< 200 nM
c1ccc(N2CCN(c3ccc4c(c3)CCC3(CCN(C5CCC5)CC3)O4)CC2)nc1 [Example 368]	171 to 172 °C	–	–	< 200 nM	< 200 nM
c1cnc(N2CCN(c3ccc4c(c3)CCC3(CCN(C5CCC5)CC3)O4)CC2)nc1 [Example 369]	156 to 157 °C	–	–	< 200 nM	< 200 nM
c1cnc(N2CCN(c3ccc4c(c3)CCC3(CCN(C5CCC5)CC3)O4)CC2)cn1 [Example 370]	168 to 169 °C	–	–	< 200 nM	< 200 nM
Clc1ccc(-c2ccc3c(c2)CCC2(CCN(C4CCC4)CC2)O3)cn1 [Example 371]	168 to 169 °C	–	–	< 200 nM	< 200 nM
FC(F)(F)c1ccc(N2CCN(c3ccc4c(c3)CCC3(CCN(C5CCC5)CC3)O4)CC2)nc1 [Example 372]	212 to 213 °C	–	–	< 200 nM	< 200 nM
